Source: US20110305748A1 (priority 2010, published 2011)

System: influenza
Design: species or system mice
Settings: mouse, in vivo

## GLA
  Th1 T cell responses (antigen-specific IgG2a titers and IFNγ production): dramatic increase in antigen-specific IgG2a titers and IFNγ production
